Experimental data published in patent US20210293825A1, “METHODS FOR PRECISION THERAPEUTIC TARGETING OF HUMAN CANCER CELL MOTILITY AND KITS THEREOF” (UNITED STATES GOVERNMENT AS REPRESENTED BY THE DEPARTMENT …, priority 2018, published 2021).

Tested on: human prostate cells (PC3, PC3-M, 1532NPTX, 1542NPTX, 1532CPTX, 1542CPTX)
Test: Boyden chamber cell invasion assay, human prostate cells
Assay type: cell-based
Conditions: 10 μM, 3 days; normal, primary and metastatic PCa cells
Text: FIG. 1a is a schematic flow of probe synthesis and development strategy. […] Values are mean±SEM of a single experiment in replicates of N=4, with similar findings in multiple separate experiments (also N=4). […] Values are mean±SEM of a single experiment in replicates of N=24, with similar findings in a separate experiment (also N=24). *Denotes Student's t test P value <0.05, compared to controls. […] Values are mean±SEM from N>2 separate experiments, each in replicates of N=3. […] Values are the mean±SD number of total, CFU-GM, CFU-GEMM or BFU-E colonies at 14 days after treatment with KBU2046, from a single experiment in replicates of N=2. […] Values are the mean±SD of a single experiment, with similar results seen in a separate experiment, both in replicates of N=2.
Cell Invasion Assays. Boyden chamber cell invasion assays were performed as previously described^9, using either denatured collagen (BD Biosciences) or type IV human collagen (BD Biosciences), with the experiments repeated, each in N=4 replicates. In some experiments, as indicated, cells were transfected with an expression plasmid, using Lipofectamine 2000™ (Invitrogen), or with siRNA, using DharmaFect Duo (Thermo Scientific) and co-transfected with β-Galactosidase (Plasmid pCMV⋅SPORT-βgal; Life Technology).

## O=C1c2ccccc2OCC1c1ccc(F)cc1 (racemic) [KBU2046, (±)-3(4-fluorophenyl)chroman-4-one]
  inhibition of cell invasion: inhibits cell invasion with efficacy equal-to-or-greater-than that of genistein
